Results on 1 molecule are retold here after patent US11572358B2, “Solid forms of an sGC stimulator” (Cyclerion Therapeutics, Inc., priority 2016, dated 2023).

This data set in a line: Storage stability at 40° C. and 75% relative humidity, XRPD trace before and after. The data set is classed as physicochemical. The conditions noted are these: stored for 14 months at 40° C. and 75% relative humidity. As to the method:
When comparing XRPD spectra, a spectrum will be “substantially similar” to one shown in this disclosure for a particular solid form of Compound I, wherein the characteristic peaks in said spectrum are measured at the same values of °2θ as those shown in the figure of this disclosure, or within a range of + or −0.5 units of °2θ from those peaks shown in said figure.
X-Ray Powder Diffraction traces were obtained using a D8 Advance, Bruker apparatus; using one of two Methods:
Scan 5-45° 2-theta, 0.02° step size, 1 sec per step; or
Scan 3-40° 2-theta, 0.037° step size, 1.5 sec per step

For the molecule `NC(=O)[C@](O)(CNc1nc(-c2cc(-c3ccon3)n(Cc3ccccc3F)n2)ncc1F)C(F)(F)F` [Form B, (R)-3,3,3-trifluoro-2-(((5-fluoro-2-(1-(2-fluorobenzyl)-5-(isoxazol-3-yl)-1H-pyrazol-3-yl)pyrimidin-4-yl)amino)methyl)-2-hydroxypropanamide], the “XRPD trace after storage” value is listed as “essentially unchanged”.
